# Where two headings read alike, the source gives them in different places.
# How the values were obtained:
# [1] = system: Clostridium perfringens; experiment: microbe, parasite or virus in culture; assay type: cell-based; conditions: read-out: MICs
# [2] = system: Clostridium perfringens; experiment: microbe, parasite or virus in culture; assay type: cell-based; conditions: Clostridium perfringens
# [3] = system: Bacillus; experiment: microbe, parasite or virus in culture; assay type: cell-based; conditions: for MIC: read-out: MICs
# [4] = system: MRSA T144; conditions: Galleria mellonella infected with MRSA T144, 2 mg/kg b.w. 1 hour after infection, within 5 days
# [5] = system: Staphylococcus; experiment: microbe, parasite or virus in culture; assay type: cell-based; conditions: for MIC: read-out: MICs
# [6] = system: Mycobacterium smegmatis; experiment: microbe, parasite or virus in culture; assay type: cell-based; conditions: Mycolicibacterium smegmatis, read-out: MICs
# [7] = system: Streptococcus; experiment: microbe, parasite or virus in culture; assay type: cell-based; conditions: for MIC: read-out: MICs
# [8] = system: MRSA T144; conditions: C57BL/6J mice infected i.p. with MRSA T144, 10 mg/kg b.w. 1 hour after infection, within 3 days
# [9] = system: Staphylococcus aureus ATCC 25923; experiment: Growth curve (OD 600 nm, 24 h), Staphylococcus aureus; conditions: Staphylococcus aureus ATCC 25923, BAB159 at its MIC concentration, OD 600 nm over 24 hours
# [10] = system: Enterococcus; experiment: microbe, parasite or virus in culture; assay type: cell-based; conditions: for MIC: read-out: MICs
# [11] = MIC against pathogenic fungi, Candida ATCC 6258; assay type: cell-based; conditions: Candida albicans ATCC 6258 (Candida krusei ATCC 6258)
# [12] = system: Aspergillus flavus ATCC 11492; experiment: MIC against pathogenic fungi, Aspergillus flavus; assay type: cell-based
# [13] = system: Aspergillus niger ATCC 96918; experiment: MIC against pathogenic fungi, Aspergillus niger; assay type: cell-based; conditions: for MICs: Aspergillus niger ATCC 96918
# [14] = Pharmacokinetics in rabbit plasma after intramuscular injection; assay type: in vivo, rabbits; conditions: for Cmax: 20 mg/kg
# Description: In order to investigate the metabolic residues of BAB159 in model animals, rabbits were used as animal models to quantitatively analyze the levels of BAB159 in rabbit plasma. Male Chinese white rabbits weighing around 2 kg were adaptively fed for one week. Then, 2 mL of BAB159 suspension was injected into the left hind thigh muscle of the rabbits at a dose of 20 mg/kg b.w. Blood samples were collected from the ear vein at 8 time points, including 0.5, 1, 2, 4, 6, 8, 12, and 24 hours after administration. After pre-treatment of the plasma samples, UPLC-MS/MS detection was performed.
# [15] = system: Haemophilus; experiment: MIC, broth microdilution, Haemophilus; assay type: cell-based
# [16] = system: MRSA T144; conditions: BAB159 at its MIC concentration, OD 600 nm over 24 hours
# [17] = system: Candida albicans, Aspergillus flavus, Aspergillus niger, and Trichophyton; experiment: MIC against common clinical pathogenic fungi (summary); assay type: cell-based; conditions: range over species
# [18] = system: Trichophyton ATCC MTA-4439; experiment: MIC against pathogenic fungi, Trichophyton; assay type: cell-based
# [19] = read-out: MIC value against Clostridium perfringens, strain A3-1 (A-type)
# [20] = read-out: MIC value against Clostridium perfringens, strain A3-2 (A-type)
# [21] = read-out: MIC value against Clostridium perfringens, strain A57-1 (A-type)
# [22] = read-out: MIC value against Clostridium perfringens, strain B4 (B-type)
# [23] = read-out: MIC value against Clostridium perfringens, strain B5 (B-type)
# [24] = read-out: MIC value against Clostridium perfringens, strain C3 (C-type)
# [25] = read-out: MIC value against Clostridium perfringens, strain C8 (C-type)
# [26] = read-out: MIC value against Clostridium perfringens, strain C59-1 (C-type)
# [27] = read-out: MIC value against Clostridium perfringens, strain D14B (D-type)
# [28] = read-out: MIC value against Clostridium perfringens, strain F5-2 (F-type)
# [29] = read-out: MIC value against Clostridium perfringens, strain F6-1 (F-type)
# [30] = read-out: MIC value against Clostridium perfringens, strain F6-2 (F-type)
# [31] = read-out: MIC value against Clostridium perfringens, strain F6-2-1 (F-type)
# [32] = read-out: MIC value against Clostridium perfringens, strain F6-2-2 (F-type)
# [33] = read-out: MIC value against Clostridium perfringens, strain F7-1 (F-type)
# [34] = read-out: MIC value against Clostridium perfringens, strain F8-1 (F-type)
# [35] = read-out: MIC value against Clostridium perfringens, strain H12-1 (H-type)
# [36] = read-out: MIC value against Clostridium perfringens, strain H12-2 (H-type)
# [37] = read-out: MIC value against Clostridium perfringens, strain H13-1 (H-type)
# [38] = read-out: MIC value against Clostridium perfringens, strain H14-1 (H-type)
# [39] = read-out: MIC value against Clostridium perfringens, strain H14-2 (H-type)
# [40] = read-out: MIC value against Clostridium perfringens, strain H14-4 (H-type)
# [41] = read-out: MIC value against Clostridium perfringens, strain H15-1 (H-type)
# [42] = read-out: MIC value against Clostridium perfringens, strain H15-2 (H-type)
# [43] = read-out: MIC value against Clostridium perfringens, strain H15-3 (H-type)
# [44] = read-out: MIC value against Clostridium perfringens, strain H16 (H-type)
# [45] = read-out: minimum inhibitory concentration (MIC50)
# [46] = male, Chinese white, im, rabbit plasma, intramuscular injection, 20 mg/kg b.w.
# [47] = male, Chinese white, rabbit, plasma, im, rabbits, intramuscular injection, 20 mg/kg b.w.
compound,measurement,setting,value
"CN[C@H](CC(C)C)C(=O)N[C@H]1C(=O)N[C@@H](CC(N)=O)C(=O)N[C@H]2C(=O)N[C@H]3C(=O)N[C@H](C(=O)N[C@H](C(=O)O)c4cc(O)cc(O)c4-c4cc3ccc4O)[C@H](O)c3ccc(c(Cl)c3)Oc3cc2cc(c3O[C@@H]2O[C@H](CO)[C@@H](O)[C@H](O)[C@H]2O[C@H]2C[C@](C)(N)[C@H](O)[C@H](C)O2)Oc2ccc(cc2Cl)[C@H]1O [VAN, Vancomycin]",MIC,[1],0.5 µg/mL
same,MIC,[2]; read-out: MIC value against Clostridium perfringens,≤ 0.25 µg/mL
same,MIC,[3],0.5 µg/mL
same,protective rate,[4],40%
same,MIC,[5]; Staphylococcus,1 µg/mL
same,MIC,[6],16 µg/mL
same,MIC,[7],0.25 µg/mL
O=C(Nc1ccc(C(F)(F)F)c(Cl)c1Cl)c1cc(Cl)ccc1O [BAB159],MIC,[1],0.25 µg/mL
same,protective rate,[8],100%
same,growth inhibition (growth curve),[9],significantly inhibit the growth
same,MIC50,[2],0.25 µg/mL
same,MIC90,[2],0.5 µg/mL
same,MIC,[2]; [19],0.5 µg/mL
same,MIC,[2]; [20],0.25 µg/mL
same,MIC,[2]; [21],0.25 µg/mL
same,MIC,[2]; [22],0.5 µg/mL
same,MIC,[2]; [23],0.25 µg/mL
same,MIC,[2]; [24],0.5 µg/mL
same,MIC,[2]; [25],0.25 µg/mL
same,MIC,[2]; [26],0.25 µg/mL
same,MIC,[2]; [27],0.25 µg/mL
same,MIC,[2]; [28],0.25 µg/mL
same,MIC,[2]; [29],0.25 µg/mL
same,MIC,[2]; [30],0.5 µg/mL
same,MIC,[2]; [31],0.5 µg/mL
same,MIC,[2]; [32],0.25 µg/mL
same,MIC,[2]; [33],0.5 µg/mL
same,MIC,[2]; [34],0.5 µg/mL
same,MIC,[2]; [35],0.25 µg/mL
same,MIC,[2]; [36],0.25 µg/mL
same,MIC,[2]; [37],0.5 µg/mL
same,MIC,[2]; [38],0.5 µg/mL
same,MIC,[2]; [39],0.5 µg/mL
same,MIC,[2]; [40],0.5 µg/mL
same,MIC,[2]; [41],0.25 µg/mL
same,MIC,[2]; [42],0.5 µg/mL
same,MIC,[2]; [43],0.25 µg/mL
same,MIC,[2]; [44],0.25 µg/mL
same,MIC,"[2]; read-out: highest MIC value, against 26 tested strains of Clostridium perfringens",0.5 µg/mL
same,MIC,[10],0.25 µg/mL
same,MIC50,[10]; [45],0.25 µg/mL
same,MIC,[3],0.01 µg/mL
same,MIC50,[3]; [45],0.01 µg/mL
same,MIC,[11]; ATCC6258,1 µg/mL
same,MIC,[12]; ATCC11492,1 µg/mL
same,protective rate,[4],70%
same,MICs,[13],0.5 µg/mL
same,MIC,"[13]; Aspergillus niger, ATCC96918, Aspergillus niger ATCC 96918",0.25 µg/mL
same,MIC50,[5]; Staphylococcus,0.0156 µg/mL
same,MIC,[5]; Staphylococcus,0.01 µg/mL
same,MIC50,[5]; [45],0.01 µg/mL
same,AUIC,[14]; AUC after intramuscular injection in rabbits to MIC50 against Staphylococcus,109
same,AUC,[14]; [46],1710 ng·h/mL
same,Tmax,[14]; [46],6 h
same,Cmax,"[14]; male, Chinese white, rabbit, plasma, im, rabbit plasma, intramuscular injection, 20 mg/kg b.w., read-out: Cmax",207 ng/mL
same,AUC(0-t),[14]; [47],1640 ± 70.5 ng·h/mL
same,half-life,[14]; [47],16.1 ± 3.6 h
same,Cmax,"[14]; rabbit plasma, intramuscular injection, 20 mg/kg b.w.",148.2 ± 13.05 ng/mL
same,MIC50,"[15]; Haemophilus, read-out: minimum inhibitory concentration (MIC50)",16 µg/mL
same,MIC,[15]; gram-negative bacteria such as Haemophilus,8 to 32 µg/mL
same,growth inhibition (growth curve),[16],significantly inhibit the growth
same,MIC,[17],0.5 to 1 µg/mL
same,MIC,[6],2 µg/mL
same,MIC,"[18]; Trichophyton, read-out: MICs",0.125 µg/mL
same,MIC,[7],0.125 µg/mL
same,MIC50,[7]; [45],0.125 µg/mL
C[C@@H]1[C@H](O)[C@@H](C)/C=C/C=C/C=C/C=C/C=C/C=C/C=C/[C@H](O[C@@H]2O[C@H](C)[C@@H](O)[C@H](N)[C@@H]2O)C[C@@H]2O[C@](O)(C[C@@H](O)C[C@@H](O)[C@H](O)CC[C@@H](O)C[C@@H](O)CC(=O)O[C@H]1C)C[C@H](O)[C@H]2C(=O)O [Amphotericin B],MICs,[11],0.5 µg/mL
same,MICs,[12],0.25 µg/mL
same,MICs,[13],0.125 µg/mL
same,MICs,[18]; Trichophyton ATCC MTA-4439,0.25 µg/mL
CC(=O)NC[C@H]1CN(c2ccc(N3CCOCC3)c(F)c2)C(=O)O1 [linezolid],MIC,[10],1 µg/mL
O=C(Nc1cc(F)c(Cl)c(Cl)c1)c1cc(Cl)ccc1O [BAB166],MIC50,[2],32 µg/mL
"CCC[C@@H]1C[C@@H](C(=O)N[C@@H]([C@H]2O[C@H](SC)[C@H](O)[C@@H](O)[C@H]2O)[C@@H](C)O)N(C)C1 [LIN, Lincomycin]",MIC50,[2],8 µg/mL
same,MIC90,[2],> 128 µg/mL
same,MIC,[2]; [19],1 µg/mL
same,MIC,[2]; [20],0.5 µg/mL
same,MIC,[2]; [21],2 µg/mL
same,MIC,[2]; [22],> 128 µg/mL
same,MIC,[2]; [23],> 128 µg/mL
same,MIC,[2]; [24],> 128 µg/mL
same,MIC,[2]; [25],128 µg/mL
same,MIC,[2]; [26],0.5 µg/mL
same,MIC,[2]; [27],64 µg/mL
same,MIC,[2]; [28],128 µg/mL
same,MIC,[2]; [29],32 µg/mL
same,MIC,[2]; [30],32 µg/mL
same,MIC,[2]; [31],128 µg/mL
same,MIC,[2]; [32],128 µg/mL
same,MIC,[2]; [33],> 128 µg/mL
same,MIC,[2]; [34],> 128 µg/mL
same,MIC,[2]; [35],0.5 µg/mL
same,MIC,[2]; [36],≤ 0.25 µg/mL
same,MIC,[2]; [37],4 µg/mL
same,MIC,[2]; [38],8 µg/mL
same,MIC,[2]; [39],8 µg/mL
same,MIC,[2]; [40],4 µg/mL
same,MIC,[2]; [41],≤ 0.25 µg/mL
same,MIC,[2]; [42],4 µg/mL
same,MIC,[2]; [43],4 µg/mL
same,MIC,[2]; [44],4 µg/mL
O=C(Nc1cc(Cl)cc(Br)c1)c1cc(Cl)ccc1O [BAB142],MIC50,[2],16 µg/mL
Cc1cc(C(F)(F)F)ccc1NC(=O)c1cc(Cl)ccc1O [BAB151],MIC50,[2],8 µg/mL
O=C(Nc1ccc(Cl)c(C(F)(F)F)c1Cl)c1cc(Cl)ccc1O [BAB160],MIC50,[2],8 µg/mL
